ChEMBL document CHEMBL4673372, “1,2,3-triazole-thiazole hybrids: Synthesis, in vitro antimicrobial activity and antibiofilm studies” (Bioorg Med Chem Lett, 2021)
≈ marks a conversion by molar mass, not a printed value.

How the values were obtained:
[1] = Selectivity index, ratio of CC50 for human THP-1 cells to MIC for Staphylococcus aureus MTCC 96; type: toxicity
[2] = Cytotoxicity against human THP-1 cells; type: cell-based
THP-1 [3] = assay: Cytotoxicity against human THP-1 cells assessed as cell damage at 200 uM by LDH assay; type: cell-based; conditions: thp-1, 200 µM
THP-1 [4] = assay: Cytotoxicity against human THP-1 cells assessed as reduction in cell viability at 200 uM by MTT assay; type: cell-based; conditions: thp-1, 200 µM
Candida albicans [5] = assay: Inhibition of biofilm formation in Candida albicans MTCC 3017 incubated for 24 hrs by crystal violet staining based microtiter plate method; type: functional, organism-based
Pseudomonas aeruginosa [6] = assay: Inhibition of biofilm formation in Pseudomonas aeruginosa MTCC 2453 incubated for 24 hrs by crystal violet staining based microtiter plate method; type: functional, organism-based; conditions: Pseudomonas aeruginosa, MTCC 2453, 24 h; read-out: IC50
Escherichia coli [7] = assay: Inhibition of biofilm formation in Escherichia coli MTCC 739 incubated for 24 hrs by crystal violet staining based microtiter plate method; type: functional, organism-based; conditions: Escherichia coli, MTCC 739, 24 h; read-out: IC50
Raoultella planticola [8] = assay: Inhibition of biofilm formation in Klebsiella planticola MTCC 530 incubated for 24 hrs by crystal violet staining based microtiter plate method; type: functional, organism-based; conditions: Klebsiella planticola, MTCC 530, 24 h; read-out: IC50
Micrococcus luteus [9] = assay: Inhibition of biofilm formation in Micrococcus luteus MTCC 2470 incubated for 24 hrs by crystal violet staining based microtiter plate method; type: functional, organism-based
Bacillus subtilis [10] = assay: Inhibition of biofilm formation in Bacillus subtilis MTCC 121 incubated for 24 hrs by crystal violet staining based microtiter plate method; type: functional, organism-based; conditions: Bacillus subtilis, MTCC 121, 24 h; read-out: IC50
Staphylococcus aureus [11] = assay: Inhibition of biofilm formation in Staphylococcus aureus MLS16 MTCC 2940 incubated for 24 hrs by crystal violet staining based microtiter plate method; type: functional, organism-based
Staphylococcus aureus [12] = assay: Inhibition of biofilm formation in Staphylococcus aureus […] incubated for 24 hrs by crystal violet staining based microtiter plate method; type: functional, organism-based
Pichia sporocuriosa [13] = assay: Antifungal activity against Issatchenkia hanoiensis MTCC 4755; type: functional
Pichia kudriavzevii = assay: Antifungal activity against Candida krusei MTCC 3020; type: functional
Nakaseomyces glabratus = assay: Antifungal activity against Candida glabrata MTCC 3019; type: functional
[Candida] aaseri = Antifungal activity against Candida aaseri MTCC 1962; type: functional; conditions: Yamadazyma aaseri
Candida parapsilosis = assay: Antifungal activity against Candida parapsilosis MTCC 1745; type: functional; conditions: Lodderomyces parapsilosis
Candida albicans [14] = assay: Antifungal activity against Candida albicans MTCC 4748; type: functional
Candida albicans [15] = assay: Antifungal activity against Candida albicans MTCC 3958; type: functional
Candida albicans [16] = assay: Antifungal activity against Candida albicans MTCC 3018; type: functional
Candida albicans [17] = assay: Antifungal activity against Candida albicans MTCC 1637; type: functional
Candida albicans [18] = assay: Antifungal activity against Candida albicans MTCC 854; type: functional
Pichia sporocuriosa [19] = assay: Fungicidal activity against Issatchenkia hanoiensis MTCC 4755; type: functional
Candida albicans [20] = assay: Fungicidal activity against Candida albicans MTCC 183; type: functional
Candida albicans [21] = assay: Fungicidal activity against Candida albicans MTCC 854; type: functional
Pseudomonas aeruginosa [22] = assay: Bactericidal activity against Pseudomonas aeruginosa MTCC 2453; type: functional
Raoultella planticola [23] = assay: Bactericidal activity against Klebsiella planticola MTCC 530; type: functional
Micrococcus luteus [24] = assay: Bactericidal activity against Micrococcus luteus MTCC 2470; type: functional
Bacillus subtilis [25] = assay: Bactericidal activity against Bacillus subtilis MTCC 121; type: functional
Staphylococcus aureus [26] = assay: Bactericidal activity against Staphylococcus aureus MTCC 96; type: functional
Candida albicans [27] = assay: Antifungal activity against Candida albicans MTCC 227; type: functional
Candida albicans [28] = assay: Antifungal activity against Candida albicans MTCC 183; type: functional
Pseudomonas aeruginosa [29] = assay: Antibacterial activity against Pseudomonas aeruginosa MTCC 2453 assessed as inhibition of bacterial growth by microtiter broth dilution method; type: functional
Escherichia coli [30] = assay: Antibacterial activity against Escherichia coli MTCC 739 assessed as inhibition of bacterial growth by microtiter broth dilution method; type: functional
Raoultella planticola [31] = assay: Antibacterial activity against Klebsiella planticola MTCC 530 assessed as inhibition of bacterial growth by microtiter broth dilution method; type: functional
Micrococcus luteus [32] = assay: Antibacterial activity against Micrococcus luteus MTCC 2470 assessed as inhibition of bacterial growth by microtiter broth dilution method; type: functional
Bacillus subtilis [33] = assay: Antibacterial activity against Bacillus subtilis MTCC 121 assessed as inhibition of bacterial growth by microtiter broth dilution method; type: functional
Staphylococcus aureus [34] = assay: Antibacterial activity against Staphylococcus aureus MLS16 MTCC 2940 assessed as inhibition of bacterial growth by microtiter broth dilution method; type: functional
Staphylococcus aureus [35] = assay: Antibacterial activity against Staphylococcus aureus MTCC 96 assessed as inhibition of bacterial growth by microtiter broth dilution method; type: functional
Escherichia coli [36] = assay: Bactericidal activity against Escherichia coli MTCC 739; type: functional
Staphylococcus aureus [37] = assay: Bactericidal activity against Staphylococcus aureus MLS16 MTCC 2940; type: functional
[38] = Candida albicans, MTCC 3017, 24 h, read-out: IC50

| Structure (SMILES) | selectivity ratio [1] | CC50 [2] | Activity (THP-1 [3]) | Activity (THP-1 [4]) | IC50 (Candida albicans [5]; [38]) | IC50 (Pseudomonas aeruginosa [6]) | IC50 (Escherichia coli [7]) | IC50 (Raoultella planticola [8]) | MBC (Pseudomonas aeruginosa [22]) | MBC (Raoultella planticola [23]) | MBC (Micrococcus luteus [24]) | MBC (Bacillus subtilis [25]) | MBC (Staphylococcus aureus [26]) | MIC (Pseudomonas aeruginosa [29]) | MIC (Escherichia coli [30]) | MIC (Raoultella planticola [31]) | MIC (Micrococcus luteus [32]) | MIC (Bacillus subtilis [33]) | MIC (Staphylococcus aureus [34]) | MIC (Staphylococcus aureus [35]) | also measured |
| --- | --- | --- | --- | --- | --- | --- | --- | --- | --- | --- | --- | --- | --- | --- | --- | --- | --- | --- | --- | --- | --- |
| COc1ccc(-n2cc(COc3ccc(/C=N/Nc4nc(-c5cc6ccccc6oc5=O)cs4)cc3)nn2)cc1 | 2.58 | 36.3 µM | Toxic | Toxic | 63.5 µM | 19.5 µM | 31.3 µM | 35.7 µM | 56.6 µM (≈ 31.2 µg/mL) | 28.3 µM (≈ 15.6 µg/mL) | 14.1 µM (≈ 7.76 µg/mL) | 14.1 µM (≈ 7.76 µg/mL) | 28.3 µM (≈ 15.6 µg/mL) | 14.1 µM (≈ 7.76 µg/mL) | > 227 µM | 14.1 µM (≈ 7.76 µg/mL) | 7 µM (≈ 3.85 µg/mL) | 7 µM (≈ 3.85 µg/mL) | > 227 µM | 14.1 µM (≈ 7.76 µg/mL) | IC50 (Micrococcus luteus [9]): Not Active; IC50 (Bacillus subtilis [10]): 6.6 µM; IC50 (Staphylococcus aureus [11]): Not Active; IC50 (Staphylococcus aureus [12]): Not Active; MIC (Pichia sporocuriosa [13]): 7.1 µM (≈ 3.91 µg/mL); MIC (Pichia kudriavzevii): > 227 µM; MIC (Nakaseomyces glabratus): > 227 µM; MIC ([Candida] aaseri): > 227 µM; MIC (Candida parapsilosis): > 227 µM; MIC (Candida albicans [14]): > 227 µM; MIC (Candida albicans [15]): > 227 µM; MIC (Candida albicans [16]): > 227 µM; MIC (Candida albicans [17]): > 227 µM; MIC (Candida albicans [18]): 7.1 µM (≈ 3.91 µg/mL); MFC (Pichia sporocuriosa [19]): 14.2 µM (≈ 7.82 µg/mL); MFC (Candida albicans [20]): 56.7 µM (≈ 31.2 µg/mL); MFC (Candida albicans [21]): 14.2 µM (≈ 7.82 µg/mL); MIC (Candida albicans [27]): > 227 µM; MIC (Candida albicans [28]): 14.2 µM (≈ 7.82 µg/mL) |
| COc1ccc(-n2cc(COc3ccc(/C=N/Nc4nc(-c5cc6c(ccc7ccccc76)oc5=O)cs4)cc3)nn2)cc1 | 5.12 | 33.3 µM | Toxic | Toxic | 45.6 µM | 30.4 µM | 127 µM | 59.7 µM | 51.9 µM (≈ 31.2 µg/mL) | 12.9 µM (≈ 7.75 µg/mL) | 25.9 µM (≈ 15.6 µg/mL) | 12.9 µM (≈ 7.75 µg/mL) | 21.4 µM (≈ 12.9 µg/mL) | 12.9 µM (≈ 7.75 µg/mL) | 6.5 µM (≈ 3.9 µg/mL) | 3.1 µM (≈ 1.86 µg/mL) | 12.9 µM (≈ 7.75 µg/mL) | 6.5 µM (≈ 3.9 µg/mL) | > 208 µM | 6.5 µM (≈ 3.9 µg/mL) | IC50 (Micrococcus luteus [9]; Micrococcus luteus, MTCC 2470, 24 h, read-out: IC50): 40.2 µM; IC50 (Bacillus subtilis [10]): 37.5 µM; IC50 (Staphylococcus aureus [11]; Staphylococcus aureus, MLS16 MTCC 2940, 24 h, read-out: IC50): 51.1 µM; IC50 (Staphylococcus aureus [12]; Staphylococcus aureus, MTCC 92, 24 h, read-out: IC50): 30.1 µM; MIC (Pichia sporocuriosa [13]): 6.5 µM (≈ 3.9 µg/mL); MIC (Pichia kudriavzevii): > 208 µM; MIC (Nakaseomyces glabratus): > 208 µM; MIC ([Candida] aaseri): > 208 µM; MIC (Candida parapsilosis): > 208 µM; MIC (Candida albicans [14]): > 208 µM; MIC (Candida albicans [15]): > 208 µM; MIC (Candida albicans [16]): > 208 µM; MIC (Candida albicans [17]): > 208 µM; MIC (Candida albicans [18]): 6.5 µM (≈ 3.9 µg/mL); MFC (Pichia sporocuriosa [19]): 13 µM (≈ 7.81 µg/mL); MFC (Candida albicans [20]): 51.9 µM (≈ 31.2 µg/mL); MFC (Candida albicans [21]): 13 µM (≈ 7.81 µg/mL); MBC (Escherichia coli [36]): 25.9 µM (≈ 15.6 µg/mL); MIC (Candida albicans [27]): > 208 µM; MIC (Candida albicans [28]): 13 µM (≈ 7.81 µg/mL) |
| O=C(O)c1cn(C2CC2)c2cc(N3CCNCC3)c(F)cc2c1=O [CIPROFLOXACIN] | – | – | – | – | – | 0.5 µM | 0.6 µM | 0.8 µM | 2.7 µM (≈ 0.895 µg/mL) | 2.7 µM (≈ 0.895 µg/mL) | 2.7 µM (≈ 0.895 µg/mL) | 2.7 µM (≈ 0.895 µg/mL) | 2.7 µM (≈ 0.895 µg/mL) | 2.7 µM (≈ 0.895 µg/mL) | 2.7 µM (≈ 0.895 µg/mL) | 2.7 µM (≈ 0.895 µg/mL) | 2.7 µM (≈ 0.895 µg/mL) | 2.7 µM (≈ 0.895 µg/mL) | 2.7 µM (≈ 0.895 µg/mL) | 2.7 µM (≈ 0.895 µg/mL) | IC50 (Candida albicans [5]): Not Active; MBC (Escherichia coli [36]): 2.7 µM (≈ 0.895 µg/mL); MBC (Staphylococcus aureus [37]): 2.7 µM (≈ 0.895 µg/mL) |
